Assay results taken from US6355634B1, “Aromatic compounds” (Bayer Aktiengesellschaft, priority 1990, dated 2002).
Blank lines part the entries; values can stand above or below the molecule they belong to.

Experiments:
Venturia inaequalis = Venturia inaequalis (curative action) on apple seedlings; type: in vivo; details: 50 ppm spray, apple cv. Golden Delicious, evaluated 9-10 days after treatment, read-out: action (leaf area covered in Venturia inaequalis as a percentage compared with the infected control)
Experimental: Venturia inaequalis (Curative Action)
Two apple seedlings cv. “Golden Delicious” are sprayed with a conidia suspension of Venturia inaequalis and subsequently incubated at 18° C. and under dew-point conditions. After 24 hours, the plants are sprayed thoroughly from all sides with a spray mixture prepared with a wettable powder of the active substance (with 50 ppm of active ingredient). The treated apple seedlings are subsequently cultured further in the greenhouse. 9-10 days after the treatment, the test is evaluated by determining the leaf area covered in Venturia inaequalis as a percentage compared with the infected control.

Puccinia coronata = Puccinia coronata (curative action) on oat seedlings; type: in vivo; details: 160 ppm spray, oat cv. Selma, evaluated 9-10 days after infection, read-out: action (leaf area infected with Puccinia coronata as a percentage compared with the infected, untreated control)
Experimental: Puccinia coronata (Curative Action)
30-40 oat seedlings cv. “Selma” (distributed to 2 pots of ø7 cm) are infected with Puccinia coronata by spraying with an aqueous spore suspension (approx. 150,000 uredospores/ml). The test plants are subsequently incubated for 24 hours at 20-24° C. and under dew-point conditions. The oat seedlings are then sprayed thoroughly from all sides with a spray mixture prepared with a wettable powder of the active substance (with 160 ppm of active ingredient). They are cultured further in a controlled-environment cabinet at 19° C. and with a photoperiod of 14 hours. The test is evaluated 9-10 days after infection by determining the leaf area infected with Puccinia coronata as a percentage compared with the infected, untreated control.

Cercospora arachidicola = assay: Action against Cercospora arachidicola on peanut plants (curative action); type: in vivo; details: Mycosphaerella arachidis, 288 h, 160 ppm spray, peanut cv. Tamnut, evaluated 12 days after treatment, read-out: action (leaf area infected with Cercospora arachidicola as a percentage compared with the infected control)
Experimental: Action Against Cercospora arachidicola on Peanut Plants (Curative Action)
Two peanut plants cv. “Tamnut” in the 4-leaf stage are sprayed with a conidia suspension of Cercospora arachidicola (approx. 200,000 conidia/ml) and subsequently incubated at 25-26° C. and under dew-point conditions. After two days, the plants are sprayed thoroughly from all sides with a spray mixture prepared with a wettable powder of the active substance (with 160 ppm of active ingredient). The treated plants are subsequently incubated in a controlled-environment cabinet under the following conditions: 25-27° C. and 80% atmospheric humidity during the day, 20° C. and dew-point conditions during the night; the photoperiod in each case is 16 hours. 12 days after the treatment, the test is evaluated by determining the leaf area infected with Cercospora arachidicola as a percentage compared with the infected control.

Plasmopara viticola = Plasmopara viticola (protective action) on grapevine seedlings; type: in vivo; details: 144 h, 160 ppm spray, grapevine cv. Riesling x Sylvaner, day 6 after infection, read-out: action (leaf area infected with Plasmopara viticola as a percentage compared with the infected, untreated control)
Experimental: Plasmopara viticola (Protective Action)
2 grapevine seedlings cv. Riesling×Sylvaner, each in the 4-5 leaf stage, are sprayed thoroughly from all sides with a spray mixture prepared with a wettable powder of the active substance (with 160 ppm of active ingredient) and subsequently cultured further in a controlled-environment cabinet at 17° C., 70-80% relative atmospheric humidity and with a photoperiod of 16 hours. After 6 days, the test plants are infected by spraying the undersides of the leaves with zoosporangia of Plasmopara viticola, suspended in distilled water (approx. 300,000 sporangia/ml). The grapevine plants are then incubated as follows: 1 day at 22° C. and under dew-point conditions in the dark and subsequently 4 days in the greenhouse. To induce fructification of Plasmopara viticola, the grapevines are transferred to a controlled-environment cabinet with dew-point conditions at 22° C. on day 5 after the infection.
The tests are carried out in each case on day 6 after the infection by determining the leaf area infected with Plasmopara viticola as a percentage compared with the infected, untreated control.

Alternaria brassicae = Alternaria brassicae (protective action) on cabbage seedlings; type: in vivo; details: 50 ppm spray, cabbage cv. Vorbote, evaluated 2-5 days after infection, read-out: action (leaf area infected with Alternaria brassicae as a percentage compared with the infected, untreated control)
Experimental: Alternaria brassicae (Protective Action)
4 cabbage seedlings, cv. “Vorbote”, in the 6-leaf stage, distributed to 2 pots, are sprayed thoroughly with a spray mixture prepared with a wettable powder of the active substance (with 50 ppm of active ingredient) and subsequently cultured further in a controlled-environment cabinet at 19° C. and with 16 hours illumination per day. Two days after the treatment, the plants are infected by spraying with an aqueous conidia suspension (approx. 30,000 conidia/ml). The cabbage plants are then incubated at 24-26° C., under dew-point conditions and with a photoperiod of 16 hours. The test is evaluated 2-5 days after the infection by determining the leaf area infected with Alternaria brassicae as a percentage compared with the infected, untreated control.

Erysiphe graminis = Erysiphe graminis (protective action) on wheat seedlings; type: in vivo; details: Blumeria graminis, 168 h, 160 ppm spray, wheat cv. Lita, evaluated 7 days after infection, read-out: action (leaf area covered in Erysiphe graminis as a percentage compared with the infected control)
Experimental: Erysiphe graminis (Protective Action)
30-40 wheat seedlings cv. “Lita” in the 1-leaf stage (distributed to two pots of ø7 cm) are sprayed thoroughly with a spray mixture prepared with a wettable powder of the active substance (with 160 ppm of active ingredient) and then cultured further in the greenhouse. One day after the treatment, the plants are dusted with conidia of Erysiphe graminis. The test is evaluated 7 days after the infection by determining the size of the leaf area covered in Erysiphe graminis as a percentage compared with the infected control.
Untreated, but infected control plants show a level of infection with Erysiphe of 100%.

SMILES: CO/N=C(\C(=O)OC)c1ccccc1CON=C(C)C(=O)c1cccc(C(F)(F)F)c1 [Compound 131]
pest or weed control at 50 ppm (Venturia inaequalis): > 75%
pest or weed control at 160 ppm (Puccinia coronata): > 75%

SMILES: CO/N=C(\C(=O)OC)c1ccccc1CON=C(C)c1cccc(C(F)(F)F)c1 [Compound 12]
pest or weed control at 50 ppm (Venturia inaequalis): > 75%
pest or weed control at 160 ppm (Cercospora arachidicola): > 75%
pest or weed control at 160 ppm (Plasmopara viticola): > 75%
pest or weed control at 50 ppm (Alternaria brassicae): > 75%
pest or weed control at 160 ppm (Puccinia coronata): > 75%

SMILES: CO/N=C(\C(=O)OC)c1ccccc1CON=C(C)c1ccc(Cl)cc1 [Compound 17]
pest or weed control at 50 ppm (Venturia inaequalis): > 75%
pest or weed control at 160 ppm (Cercospora arachidicola): > 75%
pest or weed control at 160 ppm (Plasmopara viticola): > 75%
pest or weed control at 50 ppm (Alternaria brassicae): > 75%
pest or weed control at 160 ppm (Puccinia coronata): > 75%

SMILES: CO/N=C(\C(=O)OC)c1ccccc1CON=C(c1ccccc1)C1CC1 [Compound 36]
pest or weed control at 50 ppm (Venturia inaequalis): > 75%
pest or weed control at 160 ppm (Cercospora arachidicola): > 75%
pest or weed control at 160 ppm (Plasmopara viticola): > 75%
pest or weed control at 50 ppm (Alternaria brassicae): > 75%

SMILES: CO/N=C(\C(=O)OC)c1ccccc1CON=C(C)c1ccc(OC(F)F)cc1 [Compound 78]
pest or weed control at 50 ppm (Venturia inaequalis): > 75%
pest or weed control at 160 ppm (Puccinia coronata): > 75%

SMILES: CO/N=C(\C(=O)OC)c1ccccc1CON=C(c1ccc(C)cc1)C(F)(F)F [Compound 31]
pest or weed control at 50 ppm (Venturia inaequalis): > 75%
pest or weed control at 160 ppm (Erysiphe graminis): > 75%
pest or weed control at 160 ppm (Plasmopara viticola): > 75%
pest or weed control at 50 ppm (Alternaria brassicae): > 75%

SMILES: CO/N=C(\C(=O)OC)c1ccccc1CON=C(c1ccccc1)C(C)C [Compound 29]
pest or weed control at 50 ppm (Venturia inaequalis): > 75%
pest or weed control at 160 ppm (Erysiphe graminis): > 75%
pest or weed control at 160 ppm (Plasmopara viticola): > 75%
pest or weed control at 50 ppm (Alternaria brassicae): > 75%

SMILES: CO/N=C(\C(=O)OC)c1ccccc1CON=C(c1cccc(Br)c1)C(F)(F)F [Compound 30]
pest or weed control at 50 ppm (Venturia inaequalis): > 75%
pest or weed control at 160 ppm (Cercospora arachidicola): > 75%
pest or weed control at 160 ppm (Plasmopara viticola): > 75%
pest or weed control at 50 ppm (Alternaria brassicae): > 75%

melting point: 95 to 97 °C
SMILES: CO/N=C(\C(=O)OC)c1ccccc1CON=C(C)c1ccco1

SMILES: CO/N=C(\C(=O)OC)c1ccccc1CON=C(C)C(=O)c1ccc(F)cc1 [Compound 128]
pest or weed control at 160 ppm (Erysiphe graminis): > 75%
pest or weed control at 160 ppm (Puccinia coronata): > 75%

SMILES: CO/N=C(\C(=O)OC)c1ccccc1CON=C(C)c1cccc(OC(F)(F)F)c1 [Compound 138]
pest or weed control at 160 ppm (Cercospora arachidicola): > 75%
pest or weed control at 160 ppm (Plasmopara viticola): > 75%
pest or weed control at 50 ppm (Alternaria brassicae): > 75%
pest or weed control at 160 ppm (Puccinia coronata): > 75%

SMILES: CO/N=C(\C(=O)OC)c1ccccc1CON=C(C)c1ccccn1 [Compound 15]
pest or weed control at 50 ppm (Venturia inaequalis): > 75%
pest or weed control at 160 ppm (Erysiphe graminis): > 75%
melting point: 82 to 84 °C

SMILES: CO/N=C(\C(=O)OC)c1ccccc1CON=C(C)c1cccc(Cl)c1 [Compound 135]
pest or weed control at 50 ppm (Venturia inaequalis): > 75%
pest or weed control at 160 ppm (Erysiphe graminis): > 75%
pest or weed control at 160 ppm (Plasmopara viticola): > 75%

SMILES: CO/N=C(\C(=O)OC)c1ccccc1CON=C(C)Cc1cccc(C(F)(F)F)c1 [Compound 24]
pest or weed control at 50 ppm (Venturia inaequalis): > 75%
pest or weed control at 160 ppm (Erysiphe graminis): > 75%
pest or weed control at 160 ppm (Cercospora arachidicola): > 75%
pest or weed control at 160 ppm (Plasmopara viticola): > 75%
pest or weed control at 50 ppm (Alternaria brassicae): > 75%

SMILES: CCC(=NOCc1ccccc1/C(=N/OC)C(=O)OC)c1ccc2ccccc2c1 [Compound 120]
pest or weed control at 160 ppm (Erysiphe graminis): > 75%
pest or weed control at 160 ppm (Plasmopara viticola): > 75%

SMILES: CO/N=C(\C(=O)OC)c1ccccc1CON=C(c1cccc(C(F)(F)F)c1)C1CC1 [Compound 148]
pest or weed control at 160 ppm (Cercospora arachidicola): > 75%
pest or weed control at 160 ppm (Puccinia coronata): > 75%

SMILES: CO/N=C(\C(=O)OC)c1ccccc1CON=C(C)c1ccc(F)c(C(F)(F)F)c1 [Compound 90]
pest or weed control at 160 ppm (Cercospora arachidicola): > 75%
pest or weed control at 160 ppm (Puccinia coronata): > 75%

SMILES: CO/N=C(\C(=O)OC)c1ccccc1CON=C(C)Cc1ccc(Cl)c(C(F)(F)F)c1 [Compound 133]
pest or weed control at 160 ppm (Cercospora arachidicola): > 75%
pest or weed control at 160 ppm (Puccinia coronata): > 75%

SMILES: CO/N=C(\C(=O)OC)c1ccccc1CON=C(C)c1cccc(Br)c1 [Compound 22]
pest or weed control at 50 ppm (Venturia inaequalis): > 75%
pest or weed control at 160 ppm (Cercospora arachidicola): > 75%
pest or weed control at 160 ppm (Plasmopara viticola): > 75%
pest or weed control at 50 ppm (Alternaria brassicae): > 75%
